For test [1], the system named is bovine pulmonary artery endothelial cells. Kind of test: C-peptide binding to endothelial cells. Format: cell-based. The conditions noted are these: 1 hour at 37° C., 10 nM Zn2+ and C-peptide in DMEM containing serum. The protocol:
Additional experiments were performed to determine whether a C-peptide facilitator can facilitate binding of C-peptide to cells expressing Glut1 other than RBCs. Endothelial cells (bovine pulmonary artery endothelial cells) were grown to confluency on 12-well tissue culture plates. When the cell reached confluency, they were incubated in Dulbecco's Modified Eagle Medium (DMEM) containing serum for 24 hours. Following incubation, the cells were washed and incubated for 1 hour at 37° C. in the presence of 10 nM Zn^2+ and C-peptide in DMEM containing serum. The endothelial cells were determined to have bound 2.0±0.1 attomoles of C-peptide per endothelial cell.

In test [2] the test system is RBCs. Put plainly: C-peptide binding to RBCs, ELISA of supernatant (Example 2 protocol; hematocrit and storage variations). The conditions noted are these: for average C-peptide bound to the RBCs: 7% hematocrit, 20 nM C-peptide, 75 μM BSA (0.5%), 2 hours at 37° C. Format: cell-based, human. How it is done:
All samples were handled in an identical manner. Briefly, about 10 mL of blood was drawn from each donor; the RBCs were purified by centrifugation; and the RBCs were suspended in physiological salt solution (PSS). Then RBCs were combined with PSS (containing bovine serum albumin (BSA) as a C-peptide binding facilitator) and C-peptide to generate a mixture having a 7% hematocrit, 20 nM C-peptide, and 75 μM BSA (0.5%). The mixture was allowed to incubate for 2 hours at 37° C. Next, the samples were centrifuged to separate the cells from solution, the solution was diluted 1:50 with double distilled water, and the amount of C-peptide remaining in the solution was determined by ELISA. This provided a value corresponding to the moles of C-peptide bound to the RBCs. […] Whereas blood from the healthy controls bound an average of 1.99±0.32 pmoles C-peptide, blood from MS patients and OND patients bound averages of 3.51±0.59 pmoles of C-peptide and 2.23±0.51 pmoles of C-peptide, respectively. As shown by p values of less than 0.001, the increase in C-peptide binding relative to healthy controls and OND patients is significant.
Experiments were performed to determine the effect of hematocrit on C-peptide binding to RBCs. The experiment was conducted as described above in Experiment 2, except various hematocrits were tested. […] In general, increase the hematocrit results in a substantially linear increase in C-peptide binding when the RBCs are saturated with C-peptide.
Experiments were performed to determine the stability of the whole blood. The experiment was conducted as described above in Experiment 2, except the blood was stored in citrate tubes at 4° C. over a period of 4 days during the experiment. Only blood from healthy patients was tested.
Experiments were performed to determine the stability of supernatant generated after separating cells from solution as described in Experiment 2. The protocol of Experiment 2 was repeated on blood from healthy patients, but the supernatant was stored at 4° C. for from 1 to 3 days prior to determining C-peptide binding by the RBCs.
Experiments were performed to determine the stability of supernatant generated after separating cells from solution as described in Experiment 2. The protocol of Experiment 2 was repeated on blood from healthy patients, but the supernatant was stored at −20° C. from 0 (day of draw) to 6 weeks prior to determining C-peptide binding by the RBCs.
(In general: An ELISA detects its analyte on a solid surface through an enzyme-linked reagent.)

Test [3] deals with Neutrophils from healthy control patients. Kind of test: C-peptide binding to neutrophils. The class given is cell-based, human. The conditions noted are these: 20 nM C-peptide, 1 hour at 37° C. The protocol:
Neutrophils from healthy control patients were also tested. The neutrophils were isolated using techniques known in the art. Briefly, blood was drawn into a heparin-coated vacutainer. An equal volume of 3% Dextran was added to drawn whole blood in sterile 50 mL tubes. After inverting, the tubes were set upright for 30 minutes at room temperature to generate a plurality of layers. The top layer was aspirated and transferred to a new 50 mL tube and centrifuged at 500 g for 10 minutes at 4° C. The resulting top layer was discarded. The resulting pellet was resuspended in 10 mL 0.9% saline. After pooling suspensions together in a single tube, it was underplayed with 10 mL of hypaqu-ficoll and centrifuged at 800 g for 15 minutes at room temperature. The resulting liquid band was removed and the remainder was resuspended in 20 mL 0.2% saline and mixed. 20 mL of 1.6% saline was then added to the suspension and it was centrifuged at 250 g for 6 minutes at 4° C. The supernatant was removed and the pellet was suspended in PBS for use in experiments. The cells were counted and then incubated with 20 nM C-peptide for 1 hour at 37° C. to generate an incubated sample. The incubated sample was centrifuged and the amount of C-peptide in the supernatant was determined by ELISA. The neutrophils were determined to have bound 2.68 attomoles of C-peptide per neutrophil.

Test [4] concerns RBCs. Kind of test: C-peptide binding to RBCs (Example 1, supernatant subtraction). Format: cell-based. The conditions noted are these: RBCs of individual healthy controls; 20 picomoles human C-peptide, 75 micromolar albumin, 2 hours. The protocol: The amount of C-peptide binding to RBCs obtained from MS patients was compared to controls run on the same day. All samples were handled in an identical manner. Briefly, about 10 mL of blood were drawn from each donor; the RBCs were purified by centrifugation. Next, 20 picomoles of human C-peptide were added to a buffer containing 75 micromolar albumin. RBCs were added to this C-peptide and albumin-containing buffer and allowed to incubate for 2 hours. Next, the samples were centrifuged and the moles of C-peptide remaining in the supernatant are subtracted from the original amount added. This provided a value corresponding to the moles of C-peptide bound to the RBCs. […] Importantly, of the 25 MS patient samples analyzed, the values ranged from 2.7 to 4.8 picomoles of C-peptide bound to the RBCs, with 18 of the 25 above 3.2 picomoles. In comparison, one control was 3.1, another was 2.8; all others were below 2.45. Thus, separation exists between groups—approximately […] of bound C-peptide difference.

Where “and” joins values, the source holds several entries; their conditions need not be identical. Equal entries are not always repeated.

Take “C-peptide (EAEDLQVGQVELGGGPGAGSLQPLALEGSLQ; listed as Homo sapiens) [approximately 30 amino acid polypeptide that connects the A and B chain of mature insulin within the proinsulin molecule]”: the C-peptide bound in test [1] is 2.0±0.1 attomoles of C-peptide per endothelial cell; in test [3], 2.68 attomoles of C-peptide per neutrophil. The “average C-peptide bound to the RBCs” value with RBCs [2] (MS patients) came out at 3.51 ± 0.59 pmol; in the test on RBCs [2] (OND patients), 2.23 ± 0.51 pmol; in the test with RBCs [2] (healthy controls), 1.99 ± 0.32 pmol. For the same substance, the C-peptide binding was 2.38 pmol in the test on RBCs [2] (healthy blood stored in citrate tubes at 4° C., day 1); 2.23 pmol in the test on RBCs [2] (healthy blood stored in citrate tubes at 4° C., day 2); 2.14 pmol in the test on RBCs [2] (healthy blood stored in citrate tubes at 4° C., day 3); 1.83 pmol in the test on RBCs [2] (healthy blood stored in citrate tubes at 4° C., day 4); 2.23 pmol in the test with RBCs [2] (healthy blood, supernatant stored at 4° C., day 1); 2.17 pmol in the test with RBCs [2] (healthy blood, supernatant stored at 4° C., day 2). Besides, the C-peptide binding is 2.20 pmol with RBCs [2] (healthy blood, supernatant stored at 4° C., day 3); 2.45 pmol in the test on RBCs [2] (healthy blood, supernatant stored at −20° C., week 0 (day of draw)); 2.48 pmol in the test on RBCs [2] (healthy blood, supernatant stored at −20° C., week 1); 2.30 pmol in the test on RBCs [2] (healthy blood, supernatant stored at −20° C., week 3); 2.34 pmol with RBCs [2] (healthy blood, supernatant stored at −20° C., week 6); “about 1500 C-peptide molecules per cell” with RBCs [2] (healthy individuals that do not have MS). In addition, the “C-peptide binding by RBCs, Control” value in the test on RBCs [2] (hematocrit 3.50%) worked out at 1.18 pmol; in the test on RBCs [2] (hematocrit 7%), 2.18 pmol; with RBCs [2] (hematocrit 14%), 4.78 pmol. Moreover, the figures for the “C-peptide binding by RBCs, MS” value with RBCs [2] (hematocrit 3.50%), in the test on RBCs [2] (hematocrit 7%) and in the test on RBCs [2] (hematocrit 14%) were 1.63 pmol, 3.38 pmol and 6.25 pmol, respectively. For the same substance, the “C-peptide bound to the RBCs” value in the test on RBCs [4] is 3.1 and 2.8 and below 2.45.

The record behind these values is US10627415B2, “Compositions and methods for diagnosing, monitoring, and treating an autoimmune disease” (BOARD OF TRUSTEES OF MICHIGAN STATE UNIVERSITY, priority 2015, dated 2020).
